Data taken from article PMC7770212 (Journal of Psychopharmacology (Oxford, England), 2020).

How the values were obtained:
[1] = test system: AMPH-sensitized rats; assay: Pre-pulse inhibition; type: in vivo, rat; conditions: HAL 0.1 mg/kg/day i.c.v. mini pump, day 7; versus AMPH-VEH
[2] = test system: psychotic-like rats; assay: Pilot study: continuous HAL into the lateral ventricle; type: in vivo, rat; conditions: data not shown
[3] = test system: striatal dopamine D2 receptors; conditions: 0.5 mg/kg/day subcutaneous delivery; ref Kapur et al., 2003; cited from earlier work

Question: Which results are given for `O=C(CCCN1CCC(O)(c2ccc(Cl)cc2)CC1)c1ccc(F)cc1` [HAL, Haloperidol]?
Answer: PPI of the acoustic startle response [1]: clearly improved PPI; alleviation of psychotic-like symptoms ([2]; 0.1 mg/kg/day continuous i.c.v. versus 0.01 or 0.03 mg/kg/day): significantly more effective; extrapyramidal side effects ([2]; 0.1 mg/kg/day continuous i.c.v.): without causing extrapyramidal side effects; striatal dopamine D2 receptor occupancy [3]: 73%
